Where two headings read alike, the source gives them in different places.
How the values were obtained:
[1] = test system: early life stage zebrafish; settings: cited from earlier work
[2] = test system: zebrafish embryos (wild-type strain OBI/WIK); assay: Morphological features and heart rate by automated imaging (VAST/FishInspector) at 96 hpf; assay type: in vivo, zebrafish (D. rerio); settings: embryos exposed beginning at 3 hpf; not observed when exposure started at 24 hpf
Method: Automated imaging of zebrafish developmental phenotypes was conducted with the VAST BioImager (Union Biometrica, Gees, Belgium (Pardo-Martin et al. [2010]; Pulak [2016])) equipped with a large particle sampler (LP sampler, Union Biometrica). Lateral and dorsoventral images were obtained at 10 µm resolution at 96 hpf. Prior to imaging, all embryos were anesthetized by adding 20 µl tricaine solution ([…] tricaine, TRIS 26 mM, pH 7.5 ± 0.1) to each well of the microplate. Images were processed with an amended version (1.70, available via https://codebase.helmholtz.cloud/ufz/tb3-cite/biotox/FishInspector) of the FishInspector imaging software (Teixidó et al. [2019]). The FishInspector software allows to automatically annotate morphological features including body contour, eye, lower mouth tip, pericard, otoliths, notochord, swimbladder, and yolk and to calculate diverse metrics such as feature length, size, curvature indices, or angle between feature-connecting lines. In contrast to the previously published version, FishInspector 1.70 detects morphological features based on a deep learning approach using the Matlab Neural Network Toolbox and Matlab Image Processing Toolbox (Mathworks, Natick, […]). In addition, metric calculation was included into the software, and meta information such as test compound, exposure window or test concentration was associated to each image using a microplate layout file. To facilitate training of the models, two additional programs were generated in Matlab including FishTrainer 0.9 (for training of semantic segmentation models of structural features) and FishClassificator 0.9 (for training of position classes to be used in automated flipping of images) available via same repository as FishInspector software. For image training, image size was adjusted to 450 × 300 pixel to reduce computing time. This resolution was sufficient to detect the selected features (data not shown). For training of the deep learning models, approximately 3000 previously annotated images (Teixidó et al. [2022]) were used. The automated annotations were corrected by the user in the event that they were not adequately detecting visible structures. User-bias was avoided by a blinded assessment of images.
FishInspector provided a JSON file corresponding to each image file containing the coordinates of all features and the applied smoothing factor. All images and videos used for this publication can be found at the BioImage Archive S-BIAD954 (https://www.ebi.ac.uk/biostudies/bioimages/studies/S-BIAD954). For each image, a csv file was generated containing calculated metrics. The software automatically provides a summary table containing metrics r of individual embryos. […] The analyzed file includes endpoint names based on the FishInspector software. […]

[3] = test system: zebrafish embryos (wild-type strain OBI/WIK); assay: Lethality of zebrafish embryos at 96 hpf; assay type: in vivo, zebrafish (D. rerio); settings: for Mortality (in words): embryos exposed from 24 hpf, compared to exposure from 3 hpf
Method: Fertilized and normally developed embryos were selected according to Kimmel et al. ([1995]) with a dissection microscope (Olympus SZx7-ILLT) at 1 hpf. Depending on experiment, exposure was started within 2–3 h post-fertilization (16–128 cell stages) or at 24 hpf. Exposure was conducted in rectangular 96-well microplates (Clear Polystyrene, flat bottom, Uniplate, Whatman, GE Healthcare) covered by a lid with a test volume of 400 µL of exposure media. For each replicate one embryo per well and 16 wells per concentration were assessed. Experiments were performed with at least two replicates on independent days and breeding.
Concentration–response curves were fitted for lethality, heart rate, morphological features as previously described (Teixidó et al. [2019], [2022]). The assessment of lethality and morphological features was based on the percentage of embryos affected. Therefore, morphological endpoints were dichotomized, i.e. feature metrics were converted to the percentage of embryos deviating from controls. An embryo was considered to deviate when it was outside 1.5-fold of the standard deviation range of the mean of the control group. The control mean was determined by pooling control embryos across all experiments (n = 160) (available at git.ufz.de). For heart rate and angiogenesis (number of ISVs) the analysis was based on normalized values, i.e. for each experiment the values of the treatment were divided by the control value. The experiments were designed to calculate effect concentrations based on modelled curve fits. Different concentrations were used in at least two independent replicates, with means of each replicate based on the exposure of 16 different embryos per concentrations. Effect concentration were only modeled when three conditions were met. (1) The Tukey trend test based on the R package "tukeytrend" (Schaarschmidt et al. [2022]) was deriving a maximum p-value of 0.05. (2) The Akaike information criterion (AIC) for the log-logistic model was lower than the AIC for a linear model with slope 0 (lower p values for the letter would indicate that there is no trend in the data). (3) We calculated effect concentrations only if at least 30% of embryos for that endpoint were affected in at least one exposure concentration of (for normalized data) a reduction or increase by 30% was observed.

SMILES | IC50 ([1]; ref Tal et al. [2014], read-out: IC50 (ISV inhibition)) | Swim bladder inflation (in words) [2] | LC50 ([3]; 3–96 hpf exposure, ± 95% confidence intervals) | Mortality (in words) [3] | Reduction (ISV) ([1]; late exposure scenario, 40 µM, ref Parng et al. [2002]) | Concentration with complete ISV inhibition ([1]; late exposure scenario, ref Panneerselvan and Ragunathan [2018]) | Concentration with inhibition of ISV formation ([1]; ref Serbedzija et al. [1999]) | IC50 ([1]; ref Lin et al. [2019], read-out: IC50 from scoring system of different ISV length)
CN(C)c1ccc(C=C2C(=O)Nc3ccccc32)cc1 [SU4312] | 1.8 µM | impaired swim bladder inflation | 2.11 ± 0.22 µM | no |  |  |  | 
Cc1cc(C)c(/C=C2\C(=O)Nc3ccccc32)[nH]1 [SU5416] |  | impaired swim bladder inflation |  | reduced | 40% | 2 µM | 1 µM | 
CNC(=O)c1cc(Oc2ccc(NC(=O)Nc3ccc(Cl)c(C(F)(F)F)c3)cc2)ccn1 [Sorafenib] |  | impaired swim bladder inflation |  | no |  |  |  | 0.53 µM
